Reference: US8609729B2, “Method for treating macular degeneration” (Sucampo AG, priority 2009, dated 2013)

How the values were obtained:
Format in all cases: cell-based
[1] = test system: Human retinal pigment epithelium cells (ARPE-19 cells); assay: Trans-Epithelial Resistance (TER) of ARPE-19 cells treated with tert-butyl hydroperoxide (tBH); settings: 100 nM Compound A plus 100 μM tBH; TER at 0, 6, 18, 24 and 48 hours; FIG. 1
Method: (§1) Human retinal pigment epithelium cells (ARPE-19 cells, purchased from American Type Culture Collection (ATCC)) were used in the study. ARPE-19 cells were grown on Corning Transwell 0.4 μm pore size filters (Corning Incorporated, NY, USA) in Dulbecco's modified Eagles medium containing 10% fetal calf serum. Trans-Epithelial Resistance (TER) of the cultured cells was determined using an EVOM volt-ohm meter. The TER of the cultured cells was determined by subtracting the resistance value measured with the filter alone from the value measured with the cultured cells.
The cells were grown until they reached a TER of approximately 50 Ohm/1.2 cm^2. They were then treated with 100 μM tert-butyl hydroperoxide (tBH) in 0.1% decane, 100 nM Compound A (isopropyl unoprostone, i.e. 13,14-dihydro-15-keto-20-ethyl-PGF2α isopropyl ester) in DMSO (0.1% final DMSO), or a combination of tBH plus Compound A. TER was determined at 0, 6, 18, 24 and 48 hours after the treatment.

[2] = test system: Human retinal pigment epithelium cells (ARPE-19 cells); assay: Barrier function: passage of 3,000 Dalton FITC-labeled dextran from apical to basolateral media of tBH-treated ARPE-19 cells; settings: 100 nM Compound A plus 100 μM tBH; dextran added at 20 hours, fluorescence at 44 hours; FIG. 2
Method: as §1
ARPE-19 cells grown until they reached a TER of approximately 50 Ohm/1.2 cm^2 were treated with 100 μM tBH in 0.1% decane, 100 nM Compound A in DMSO (0.1% final DMSO), or a combination of tBH plus Compound A (initial treatment). At 20 hours after the initial treatment, 3,000 Dalton FITC-labeled dextran was added at a concentration of 0.1 mg/ml to the apical surface of the cell culture and the culture was further incubated. Fluorescence of the media bathing the basolateral surface was then measured at 44 hours. Wavelengths for FITC were 494 ex/518 em.

[3] = test system: Human retinal pigment epithelium cells (ARPE-19 cells); assay: Protection from light induced cell death in A2E containing RPE cells (WST-8 viability)
Method: Protection by Compound A from light induced cell death in pyridinium bis-retinoid (A2E) containing retinal pigment epithelium (RPE) cells
Human retinal pigment epithelium cells (ARPE-19 cells) were used in the study. ARPE-19 cells were maintained in DMEM/F12 medium (supplemented with 10% FBS and 1% Penicillin-Streptomycin Mixed Sol.) in 25 cm^2 or 75 cm^2 culture flask. For the experiment, the cells were seeded on multi-well chamber slides. After confirming the cells adhered to slide, the media were changed to pyridinium bis-retinoid (A2E) containing culture medium and the cells were cultured for 5-14 days The media were changed to phosphate buffered saline (containing A2E), and then the cells were exposed to blue light (430 nm) delivered from a halogen source for 20 min. Compound A dissolved in dimethyl sulfoxide was added 1 hr before the light: exposure (the final concentration was 10 and 50 nM). After the light exposure, the cells were cultured in the DMEM/F12 medium for 24 hours. The cells were then incubated in DMEM/F12 medium containing 10% WST-8 (without A2Z) for 4 hours. Absorbance at 450 nm was measured. An increase in the absorbance is indicative of cellular viability.

CCCCCCCC(=O)CC[C@@H]1[C@@H](C/C=C\CCCC(=O)OC(C)C)[C@@H](O)C[C@H]1O [Compound A, 13,14-dihydro-15-keto-20-ethyl-PGF2α isopropyl ester]
Effect on the loss of TER caused by tBH [1]: protected against the loss of TER caused by tBH
Effect on the loss of barrier function caused by tBH (passage of 3,000 Dalton fluorescent dextran) [2]: protected against the loss of barrier function caused by tBH
Effect on cell death induced by A2E/light exposure ([3]; 10 and 50 nM, A2E + blue light exposure): prevented cell death induced by A2E/light exposure
viability at 0.01 µM ([3]; Homo sapiens, ARPE-19, 10 nM, A2E + light exposure (430 nm, 20 min), compound added 1 hr before light, WST-8 after 24 hours): 90%
viability at 0.05 µM ([3]; Homo sapiens, ARPE-19, 50 nM, A2E + light exposure (430 nm, 20 min), compound added 1 hr before light, WST-8 after 24 hours): 89%
